Consider one compound from patent US20230003721A1, “MITOTHERAPEUTICS FOR THE TREATMENT OF BRAIN DISORDERS” (The University of Florida Research Foundation, Inc., priority 2019, published 2023).

For test [1], the system named is primary neurons. The test can be described thus: Mitochondrial morphology and neurite area after functional modulators. Format: cell-based, mouse. Further details: key to Neurite Area: non-significant (n.s.). The procedure:
Mitochondrial morphology and neurite area measurements. Mitochondrial morphology and neurite area were quantified using methods described by Varkuti et al, 2020. Briefly, Cre-dependent mitochondrial targeted GFP2 (mito-GFP) ROSA26 knock-in mice were crossed with Ai14 (007908, The Jackson Laboratory) expressing cytosolic-tdTomato, and the forebrain of P0 pups were isolated and primary neurons were cultured as described above. AAV9 virus containing the iCRE sequence driven by the neuron specific CaMKII promoter was added to the cell culture at plating and 75% of the media replaced 4 h after plating. […] Z-projected images of the green channel were preprocessed (background subtraction: rolling ball, radius=3; median filtering: radius=1) and somatic mitochondria were removed (see details in Varkuti et al, Science Advances 6 (2020) eaaw8702). Red channel images were also preprocessed (tubeness filter, soma removal). Preprocessed images were segmented by GE Developer software (object-based, kernel size: 3). […] The length and circularity measurements for mitochondria were aggregated using the median and the area for neurites using the sum. After removing empty fields and outlier values from the fields, aggregated field values were averaged to well values (4 fields/well, 12 wells/compound). Robust Z-scores were calculated using DMSO-treated wells for each well ((mediancompound−medianDMSO)/median absolute deviationDMSO), well values were averaged for each compound.
A high-content assay was developed in parallel to monitor aspects of mitochondrial dynamics in primary cultured neurons that conditionally express (Cre recombinase dependent) mitochondrial-tagged GFP and cytosolic tdTomato reporters (Varkuti et al., 2020). We monitored two aspects of neuritic mitochondrial dynamics: (1) the health of mitochondria as measured by the average circularity of axonal mitochondria, since defective mitochondria targeted for mitophagy become circular in shape, and (2) the balance between fission/fusion measured by the average length of dendritic mitochondria. […] FIG. 19A illustrates the results of surveying a collection of functional modulators selected from 5 different structural clusters (FIG. 17), quantified as robust z-scores relative to DMSO-treated control neurons.

Test [2] relates to primary neurons. The test can be described thus: Oxygen consumption rate (OCR) of permeabilized primary neurons. Format: cell-based, mouse.
Protocol: The oxygen consumption rate (OCR) of permeabilized neurons and isolated brain mitochondria (from 9-month old mice) was measured by the XF96 Extracellular Flux analyzer (Seahorse Bioscience). […] Prior to the start of the OCR measurement, all but 30 μl of Neurobasal A/B27 culture medium was removed from each well. Cells were washed twice with pre-warmed MAS-BSA assay medium (4 mg/ml fatty-acid free BSA, pH=7.2) and incubated in 180 μl at 37° C. for 5 min. Following the cartridge calibration, cells were loaded into the XF96 Extracellular Flux analyzer and further equilibrated for 10 min with two cycles of 3 min mixing and 2 min resting prior to the first measurement of basal respiration. OCR were measured at 37° C. under basal conditions followed by the sequential injection of pre-warmed 10× mitochondrial substrates/ADP (20 μl), oligomycin (22 μl), FCCP (24 μl), and rotenone/antimycin A (26 μl). The final concentrations of injected compounds were as follows: 10 mM mitochondrial substrates (pyruvate/malate or succinate), 1 mM ADP, 1.5 μM oligomycin, 3 μM FCCP, 2 μM rotenone/antimycin A. Saponin (25 μg/ml) was co-injected with substrate/ADP to permeabilize the cells and stimulate ADP-dependent respiration. Two baseline measurements were obtained prior to any injection and 2 response measurements were collected after each injection except for after FCCP addition which consisted of 1 measurement (9 total measurements in each assay). Each measurement cycle consisted of 2 min mixing, 2 min waiting, and 3 min data acquisition. This protocol allowed for sequential assessment of basal cell respiration, maximal mitochondrial respiratory capacity (State 3 with substrate/ADP), proton leak (State 4o with oligomycin), uncoupled maximal respiration (State 3U with FCCP) and non-mitochondrial respiration with the Complex I/Complex III inhibitors, rotenone/antimycin A. Cells were washed twice with MAS buffer to remove residue BSA contained in the assay medium, lysed in 50 μl lysis buffer (25 mM HEPES, 1 mM EGTA, 1 mM EDTA, 0.1% SDS, 1% NP-40, 1× protease and phosphatase inhibitor, pH 7.0 adjusted with NaOH) and total protein was determined by BCA assay. Oxygen consumption was normalized to total protein content as pmol O2/min/ug total protein.
Oxygen consumption rate (OCR) or extracellular acidification rate (ECAR) measurements from permeabilized neurons and isolated brain mitochondria were performed using the XF96 Extracellular Flux analyzer (Seahorse Bioscience). For assays using cultured neurons, primary neurons were dissociated from the forebrains of P0 pups, seeded at 1.9×10^4/well (PDL-coated XF96 plate), cultured to DIV13 and incubated with selected compounds or DMSO (0.1%) for 24 h. Prior to the start of the OCR measurement, all but 30 μl of Neurobasal A/B27 culture medium was removed from each well. Cells were washed twice with pre-warmed MAS-BSA assay medium (70 mM sucrose, 220 mM mannitol, 10 mM KH2PO4, 5 mM MgCl2, 2 mM HEPES and 1 mM EGTA, 4 mg/ml fatty-acid free BSA, pH=7.2 adjusted using KOH) and incubated in 180 ul MAS-BSA medium at 37° C. in a CO2-free incubator for 5 m. […] OCR and ECAR were measured at 37° C. under basal conditions followed by the sequential injection of pre-warmed 10× mitochondrial substrates/ADP (20 μl), oligomycin (22 μl), FCCP (24 μl), and rotenone/antimycin A (26 μl).
In test [3] the test system is primary neurons. The test can be described thus: CellTiter-Glo luminescence-based ATP assay. Format: cell-based, mouse. The method, boiled down:
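Primary neurons treated from DIV13 for 24 h with compound or DMSO. After part of the medium was removed, CellTiter-Glo reagent was added; plates were shaken 10 min at 200 rpm, kept 2 min in the dark at room temperature, and luminescence read as total ATP.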

In test [4] the test system is primary neurons. The test can be described thus: TMRM fluorescence assay of inner mitochondrial membrane potential (ΔΨm).

Structures can show the parent of a compound that is named as a salt.

Turning to `CN(C)CCC=C1c2ccccc2COc2ccccc21` [doxepin hydrochloride], the axonal mitochondrial circularity result in test [1] (after 48 h of treatment) was “robust effects”. For the same compound, in test [1] (significant change), the “Mitochondrial Morphology” value is reported as “elongated” and the “Neurite Area” value is reported as “n.s”. Further, the “basal rate of respiration” value in test [2] (10 μM, 24 h) is “weak, non-significant, but consistent trend towards an increased basal rate of respiration”. Also, the “State 3 and 3u respiration with Complex I substrates” value in test [2] (10 μM, 24 h, cultured neurons) is on record as “significant increase”. For the same compound, in test [2] (oxygen consumption rate, significant change), the OCR result is given as “increased”. The ATP in test [3] (ATP orthogonal screen, 24 h) was found to be 7.03 Z-scores. Moreover, in test [3] (Mus musculus, Primary neuron, maximal percent increase relative to in-plate DMSO controls, dose response, read-out: ATP (Effect-size)), the Emax was found to be 18.3%. Further, the Emax in test [4] (Mus musculus, Primary neuron, read-out: TMRM (Effect-size)) was 26.1%. For the same compound, the “TMRM Primary” value in test [4] (primary screen, 12.5 μM, 24 h) was 3.44 Z-scores. Moreover, in test [4] (rescreen, 24 h), the “TMRM Rescreen” value is on record as 5.41 Z-scores.
